Measurements reported in patent US7585895B2, “Therapeutic substituted cyclopentanes” (Allergan, Inc., priority 2005, dated 2009).

Columns and labels:
EP2 [1] = biological target: T1, EP2 (Homo sapiens, UniProt P43116); assay: cAMP assay, HEK-EBNA cells expressing EP2; assay type: cell-based; set-up: expressed in transfected cells; host or cells: HEK-EBNA; details: value in parentheses in EP2 column, read-out: EP2 EC50 (nM), measurement of cAMP (data in parentheses)
Procedure: A 384-well drug plate was prepared to contain 6 test compounds, PGE2 and cAMP in 16 serial dilutions in triplicate, using a Biomek station. HEK-EBNA cells expressing a target PG receptor subtype (EP2 or EP4) were suspended in a stimulation buffer (HBSS, 0.1% BSA, 0.5 mM IBMX and 5 mM HEPES, pH 7.4) in a density of 10^4 cells/5 μl. The reaction was initiated by mixing 5 μL drug dilutions with 5 μl of HEK-EBNA cells in a well, carried out for 30 min at room temperature, and followed by the addition of 5 μl anti-cAMP acceptor beads in the control buffer with Tween-20 (25 mM NaCl, 0.03% Tween-20, 5 mM HEPES, pH7.4). After 30 min in the dark at room temperature, the mixtures were incubated with 15 μl biotinylated-cAMP/strepavidin donor beads in Lysis/Detection buffer (0.1% BSA, 0.3% Tween-20 and 5 mM HEPES, pH7.4) for 45 min at the room temperature. Fluorescence changes were read using a Fusion-alpha HT microplate reader.

EP2 [2] = biological target: T1, EP2; assay: Competition binding, [3H]PGE2, EP2 (Ki); set-up: expressed in transfected cells; membranes or whole cells; details: HEK 293 cells stably expressing human EP2, [3H]PGE2
Procedure: Competition binding experiments were performed in a medium containing Hank's balanced salt solution, Hepes 20 mM, pH 7.3, membranes (˜60 μg protein) or 2×10^5 cells from HEK 293 cells stably expressing human EP2 receptors, [^3H]PGE2 (10 nM) and various concentrations of test compounds in a total volume of 300 μl. Reaction mixtures were incubated at 23° C. for 60 min, and were filtered over Whatman GF/B filters under vacuum. Filters were washed three times with 5 ml ice-cold buffer containing 50 mM Tris/HCl (pH 7.3). Non-specific binding was estimated in the presence of excess unlabeled PGE2 (10 μM). Binding data fitted to the binding model for a single class of binding sites, using nonlinear regression analysis. IC50 values thus obtained were converted to Ki using the equation of Ki=(IC50/(1+[L]/KD) where [L] represents PGE2 concentration (10 nM) and KD the dissociation constant for [^3H]PGE2 at human EP2 receptors (40 nM).
(§1) HEK-293 cells stably expressing the human or feline FP receptor, or EP1, EP2, or EP4 receptors were washed with TME buffer, scraped from the bottom of the flasks, and homogenized for 30 sec using a Brinkman PT 10/35 polytron. TME buffer was added to achieve a final 40 ml volume in the centrifuge tubes (the composition of TME is 100 mM TRIS base, 20 mM MgCl2, […]; 10N HCl is added to achieve a pH of 7.4).
(§2) The cell homogenate was centrifuged at 19000 r.p.m. for 20 min at 4° C using a Beckman Ti-60 rotor. The resultant pellet was resuspended in TME buffer to give a final 1 mg/ml protein concentration, as determined by Biorad assay. Radioligand binding competition assays vs. [^3H-]17-phenyl PGF2α. (5 nM) were performed in a 100 μl volume for 60 min. Binding reactions were started by adding plasma membrane fraction. The reaction was terminated by the addition of 4 ml ice-cold TRIS-HCl buffer and rapid filtration through glass fiber GF/B filters using a Brandel cell harvester. The filters were washed 3 times with ice-cold buffer and oven dried for one hour.
(§3) [^3H-] PGE2 (specific activity 180 Ci mmol) was used as the radioligand for EP receptors. [^3H] 17-phenyl PGF2α, was employed for FP receptor binding studies. Binding studies employing EP1, EP2, EP4 and FP receptors were performed in duplicate in at least three separate experiments. A 200 μl assay volume was used. Incubations were for 60 min at 25° C. and were terminated by the addition of 4 ml of ice-cold 50 mM TRIS-HCl, followed by rapid filtration through Whatman GF/B filters and three additional 4 ml washes in a cell harvester (Brandel). Competition studies were performed using a final concentration of 5 nM [^3H]-PGE2, or 5 nM [^3H] 17-phenyl PGF2αand non-specific binding determined with 10^−5M of unlabeled PGE2, or 17-phenyl PGF2α, according to receptor subtype studied.

EP4 receptors = biological target: T2, EP4 receptors (Homo sapiens, UniProt P35408); assay: Radioligand binding, [3H]PGE2, EP4 (Ki); details: HEK-293 cells stably expressing EP4, [3H]PGE2
T2 construct: expressed in transfected cells; membrane pellet
Procedure: as §1, §2, §3

hEP2/Gqs5 = biological target: T3, hEP2/Gqs5 (Homo sapiens, UniProt P43116); assay: FLIPR calcium signal, EP2; assay type: cell-based; details: HEK-293(EBNA), value outside parentheses, read-out: Ca2+ Signal-EC50 (nM) EP2
T3 construct: expressed in transfected cells
Procedure: (§4) HEK-293(EBNA) cells, stably expressing one type or subtype of recombinant human prostaglandin receptors (prostaglandin receptors expressed: hDP/Gqs5; hEP1; hEP2/Gqs5; hEP3A/Gqi5; hEP4/Gqs5; hFP; hIP; hTP), were cultured in 100 mm culture dishes in high-glucose DMEM medium containing 10% fetal bovine serum, 2 mM 1-glutamine, 250 μg/ml geneticin (G418) and 200 μg/ml hygromycin B as selection markers, and 100 units/ml penicillin G, 100 μg/ml streptomycin and 0.25 μg/ml amphotericin B.
(§5) Cells were seeded at a density of 5×10^4 cells per well in Biocoat® Poly-D-lysine-coated black-wall, clear-bottom 96-well plates (Becton-Dickinson) and allowed to attach overnight in an incubator at 37° C. Cells were then washed two times with HBSS-HEPES buffer (Hanks Balanced Salt Solution without bicarbonate and phenol red, 20 mM HEPES, pH 7.4) using a Denley Cellwash plate washer (Labsystems). After 45 minutes of dye-loading in the dark, using the calcium-sensitive dye Fluo-4 AM at a final concentration of 2 μM, plates were washed four times with HBSS-HEPES buffer to remove excess dye leaving 100 μl in each well. Plates were re-equilibrated to 37° C. for a few minutes.
(§6) Cells were excited with an Argon laser at 488 nm, and emission was measured through a 510-570 nm bandwidth emission filter (FLIPR™, Molecular Devices, Sunnyvale, Calif.). Drug solution was added in a 50 μl volume to each well to give the desired final concentration. The peak increase in fluorescence intensity was recorded for each well. On each plate, four wells each served as negative (HBSS-HEPES buffer) and positive controls (standard agonists: BW245C (hDP); PGE2 (HEP1; hEP2/Gqs5; hEP3A/Gqi5; hEP4/Gqs5); PGF2α (hFP); carbacyclin (hIP); U-46619 (hTP), depending on receptor). The peak fluorescence change in each drug-containing well was then expressed relative to the controls.
(§7) Compounds were tested in a high-throughput (HTS) or concentration-response (CoRe) format. In the HTS format, forty-four compounds per plate were examined in duplicates at a concentration of 10^−5 M. To generate concentration-response curves, four compounds per plate were tested in duplicates in a concentration range between 10^−5 and 10^−11 M. The duplicate values were averaged. In either, HTS or CoRe format each compound was tested on at least 3 separate plates using cells from different passages to give an n≧3.

hEP4/Gqs5 = biological target: T4, hEP4/Gqs5 (Homo sapiens, UniProt P35408); assay: FLIPR calcium signal, EP4; assay type: cell-based; details: HEK-293(EBNA)
T4 construct: expressed in transfected cells
Procedure: as §4, §5, §6, §7

hEP3A/Gqi5 = biological target: T5, hEP3A/Gqi5 (Homo sapiens, UniProt P43115); assay: FLIPR calcium signal, EP3; assay type: cell-based; details: HEK-293(EBNA)
T5 construct: expressed in transfected cells
T5 sequence (P43115 1-390): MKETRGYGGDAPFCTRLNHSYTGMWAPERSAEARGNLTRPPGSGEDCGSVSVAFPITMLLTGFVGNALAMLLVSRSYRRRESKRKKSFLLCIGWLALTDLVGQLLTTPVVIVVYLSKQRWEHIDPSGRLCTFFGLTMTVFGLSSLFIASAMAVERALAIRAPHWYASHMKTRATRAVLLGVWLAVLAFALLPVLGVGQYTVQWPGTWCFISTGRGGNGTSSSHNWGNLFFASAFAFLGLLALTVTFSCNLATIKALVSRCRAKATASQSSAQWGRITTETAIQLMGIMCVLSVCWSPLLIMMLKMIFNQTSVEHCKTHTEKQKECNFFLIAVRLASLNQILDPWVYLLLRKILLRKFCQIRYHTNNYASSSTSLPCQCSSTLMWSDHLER
Procedure: as §4, §5, §6, §7

hFP = biological target: T6, hFP (Homo sapiens, UniProt P43088); assay: FLIPR calcium signal, FP; assay type: cell-based; details: HEK-293(EBNA)
T6 construct: expressed in transfected cells
Procedure: as §4, §5, §6, §7

hIP = biological target: T7, hIP (Homo sapiens, UniProt P43119); assay: FLIPR calcium signal, IP; assay type: cell-based; details: HEK-293(EBNA)
T7 construct: expressed in transfected cells
Procedure: as §4, §5, §6, §7

hDP/Gqs5 = biological target: T8, hDP/Gqs5 (Homo sapiens, UniProt Q13258); assay: FLIPR calcium signal, DP; assay type: cell-based; details: HEK-293(EBNA)
T8 construct: expressed in transfected cells
T8 sequence (Q13258 1-359): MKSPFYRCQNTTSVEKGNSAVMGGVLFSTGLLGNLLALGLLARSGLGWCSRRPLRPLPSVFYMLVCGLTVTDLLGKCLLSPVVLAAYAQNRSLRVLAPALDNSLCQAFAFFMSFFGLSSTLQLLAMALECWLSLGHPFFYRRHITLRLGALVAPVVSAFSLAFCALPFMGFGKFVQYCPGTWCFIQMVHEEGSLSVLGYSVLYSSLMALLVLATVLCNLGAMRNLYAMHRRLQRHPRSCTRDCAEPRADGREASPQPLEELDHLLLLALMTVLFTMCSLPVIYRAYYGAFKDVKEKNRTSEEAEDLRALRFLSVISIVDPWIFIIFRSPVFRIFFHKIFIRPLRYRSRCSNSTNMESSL
Procedure: as §4, §5, §6, §7

hTP = biological target: T9, hTP (Homo sapiens, UniProt P21731); assay: FLIPR calcium signal, TP; assay type: cell-based; details: HEK-293(EBNA)
T9 construct: expressed in transfected cells
T9 sequence (P21731 1-343): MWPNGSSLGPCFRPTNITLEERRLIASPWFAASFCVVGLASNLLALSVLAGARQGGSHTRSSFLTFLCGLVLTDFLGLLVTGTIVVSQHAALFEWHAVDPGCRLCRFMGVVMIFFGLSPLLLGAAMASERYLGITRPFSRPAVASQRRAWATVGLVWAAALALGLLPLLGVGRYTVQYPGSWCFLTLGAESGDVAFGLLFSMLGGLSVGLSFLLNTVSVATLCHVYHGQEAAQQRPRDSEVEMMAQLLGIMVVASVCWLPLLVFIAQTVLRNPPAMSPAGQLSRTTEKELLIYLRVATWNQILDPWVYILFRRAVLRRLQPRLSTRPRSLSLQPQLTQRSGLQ
Procedure: as §4, §5, §6, §7

hEP1 = biological target: T10, hEP1 (Homo sapiens, UniProt P34995); assay: FLIPR calcium signal, EP1; assay type: cell-based; details: HEK-293(EBNA)
T10 construct: expressed in transfected cells
T10 sequence (P34995 1-402): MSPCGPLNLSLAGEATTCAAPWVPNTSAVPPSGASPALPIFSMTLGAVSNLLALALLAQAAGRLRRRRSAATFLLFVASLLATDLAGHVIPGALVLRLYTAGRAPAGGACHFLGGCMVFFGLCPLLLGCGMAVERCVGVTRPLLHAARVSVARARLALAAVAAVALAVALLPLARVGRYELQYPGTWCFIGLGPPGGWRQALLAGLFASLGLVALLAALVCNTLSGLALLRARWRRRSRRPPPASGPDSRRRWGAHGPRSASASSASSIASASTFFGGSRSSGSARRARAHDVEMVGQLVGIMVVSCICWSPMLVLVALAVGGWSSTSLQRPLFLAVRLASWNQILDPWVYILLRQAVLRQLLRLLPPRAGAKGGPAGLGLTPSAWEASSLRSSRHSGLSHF
Procedure: as §4, §5, §6, §7

T4 sequence (P35408 whole entry): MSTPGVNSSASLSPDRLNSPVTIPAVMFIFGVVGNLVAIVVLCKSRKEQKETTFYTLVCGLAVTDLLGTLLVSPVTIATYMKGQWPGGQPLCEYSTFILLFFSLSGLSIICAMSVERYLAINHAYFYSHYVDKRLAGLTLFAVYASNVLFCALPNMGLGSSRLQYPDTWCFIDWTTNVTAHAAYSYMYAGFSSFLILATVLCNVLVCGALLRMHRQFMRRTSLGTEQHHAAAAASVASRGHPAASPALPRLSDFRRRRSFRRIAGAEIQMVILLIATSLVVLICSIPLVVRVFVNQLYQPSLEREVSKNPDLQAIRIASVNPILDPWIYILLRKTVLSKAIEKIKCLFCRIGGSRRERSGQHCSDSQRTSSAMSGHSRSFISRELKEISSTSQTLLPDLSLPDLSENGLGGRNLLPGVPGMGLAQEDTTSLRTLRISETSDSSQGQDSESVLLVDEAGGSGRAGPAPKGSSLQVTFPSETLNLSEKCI
T1 sequence (P43116 whole entry): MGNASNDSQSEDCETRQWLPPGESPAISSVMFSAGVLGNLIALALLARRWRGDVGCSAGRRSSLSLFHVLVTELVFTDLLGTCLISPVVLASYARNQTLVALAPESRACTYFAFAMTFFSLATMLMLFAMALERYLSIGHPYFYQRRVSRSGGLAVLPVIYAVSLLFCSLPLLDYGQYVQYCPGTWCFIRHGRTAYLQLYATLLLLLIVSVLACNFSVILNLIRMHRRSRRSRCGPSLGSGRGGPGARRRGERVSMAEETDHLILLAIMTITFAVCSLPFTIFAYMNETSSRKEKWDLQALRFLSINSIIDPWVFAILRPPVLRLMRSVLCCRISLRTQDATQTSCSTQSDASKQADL
T3 sequence (P43116 whole entry): as above
T7 sequence (P43119 whole entry): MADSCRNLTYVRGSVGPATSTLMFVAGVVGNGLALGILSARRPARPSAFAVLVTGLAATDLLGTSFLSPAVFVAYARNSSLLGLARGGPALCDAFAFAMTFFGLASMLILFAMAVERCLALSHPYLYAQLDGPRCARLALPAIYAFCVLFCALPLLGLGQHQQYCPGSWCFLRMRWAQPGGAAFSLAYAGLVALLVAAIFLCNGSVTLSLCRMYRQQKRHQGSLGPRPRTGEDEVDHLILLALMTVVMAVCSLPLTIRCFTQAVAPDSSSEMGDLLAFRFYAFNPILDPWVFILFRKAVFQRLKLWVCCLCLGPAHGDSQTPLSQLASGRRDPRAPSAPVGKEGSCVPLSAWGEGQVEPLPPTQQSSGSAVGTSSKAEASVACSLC
T2 sequence (P35408 whole entry): as the sequence (P35408 whole entry) above
T6 sequence (P43088 whole entry): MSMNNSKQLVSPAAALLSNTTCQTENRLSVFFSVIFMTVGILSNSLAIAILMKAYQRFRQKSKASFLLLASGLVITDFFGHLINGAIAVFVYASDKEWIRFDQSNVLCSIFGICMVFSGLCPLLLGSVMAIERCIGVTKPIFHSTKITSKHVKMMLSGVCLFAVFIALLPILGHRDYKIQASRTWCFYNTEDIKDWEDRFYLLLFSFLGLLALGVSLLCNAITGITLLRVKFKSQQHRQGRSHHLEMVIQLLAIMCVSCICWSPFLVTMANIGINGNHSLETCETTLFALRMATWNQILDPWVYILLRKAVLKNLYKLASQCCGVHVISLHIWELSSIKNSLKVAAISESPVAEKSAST

EC50 (EP2 [1])	Ki (EP2 [2])	Ki (EP4 receptors)	EC50 (hEP2/Gqs5)	EC50 (hEP4/Gqs5; read-out: Ca2+ Signal-EC50 (nM) EP4)	Ca2+ Signal-EC50 (nM) EP3 (hEP3A/Gqi5)	Ca2+ Signal-EC50 (nM) FP (hFP)	Ca2+ Signal-EC50 (nM) IP (hIP)	Ca2+ Signal-EC50 (nM) DP (hDP/Gqs5)	Ca2+ Signal-EC50 (nM) TP (hTP)	Ca2+ Signal-EC50 (nM) EP4 (hEP4/Gqs5)	Ca2+ Signal-EC50 (nM) EP1 (hEP1)	SMILES
815 nM	1050 nM	6290 nM	> 10000 nM	> 10000 nM								CC(C)(C)CCCC(O)c1ccc([C@@H]2[C@@H](C/C=C\CCCC(=O)O)[C@H](Cl)C[C@H]2O)cc1 (stereo partly drawn) [Entry 19, (Z)-7-{(1R,2S,3R,5R)-5-Chloro-3-hydroxy-2-[4-(1-hydroxy-5,5-dimethyl-hexyl)-phenyl]-cyclopentyl}-hept-5-enoic acid]
			3960 nM		not active	not active	not active	not active	not active	not active	not active	CCCCCC(O)c1ccc([C@@H]2[C@@H](C/C=C\CCCC(=O)OC)[C@H](Cl)C[C@H]2O)cc1 (mixture of isomers) [Entry 10, (Z)-7-{(1R,2S,3R,5R)-5-Chloro-3-hydroxy-2-[4-(1-hydroxy-hexyl)-phenyl]-cyclopentyl}-hept-5-enoic acid methyl ester]
